Data published in US11219625B2, “Inhibitors of N-linked glycosylation and methods using same” (YALE UNIVERSITY, priority 2015, dated 2022).

Tests used:
Format in all cases: cell-based
[1] = system: lipid linked oligosaccharides (LLOs); assay: FACE analysis of lipid linked oligosaccharides; conditions: FACE, FIG. 2B
Experimental: Fluorophore assisted carbohydrate electrophoresis (FACE) was performed as previously described (Gao, et al., Glycobiology 2002, 12, 353-360; Gao, et al., J Biol Chem 2005, 280, 17901-17909). Control (Ac-Gln-Tyr-Thr-CONH2) and acceptor (Ac-Asn-Tyr-Thr-CONH2) peptides were used for permeabilized cell experiments. Metabolic labeling of Hela cells, transfection of prosaposin (pSAP) and steroid hormone binding globulin (SHBG) vectors, and knockdown of SIT3A and STT3B to monitor N-linked glycosylation knockdown were performed as described (Shrimal, et al., J Cell Biol 2013, 201, 81-95). Western blot analysis was performed as previously described (Bennett, et al., Transl Oncol 2013, 6, 382-391). The following primary antibodies were used: rabbit anti-EGFR (sc-03; Santa Cruz Biotechnology; 1:1000), rabbit anti-phospho (Tyr1173) EGF Receptor (Cell Signaling; 1:1000), rabbit anti-p21 Waf1/Cip1 (12D1; Cell Signaling; 1:1000), rabbit anti-Cyclin D1 (Cell Signaling; 1:1000), mouse anti-β-Actin (8H10D10; Cell Signaling; 1:1000). For phospho-protein array analysis, PC9 and A549 cells were cultured in 6-well plates in serum-containing medium and treated with or without 10 μM NGI-1 for 24 hours. […]

[2] = system: PC9 cells; assay: MTT proliferation assay, PC9; conditions: PC9, 1 μM tunicamycin
Experimental: (§1) FIGS. 4A-4H illustrate the finding that NGI-1 blocks RTK driven proliferation. FIG. 4A illustrates western blot analysis of EGFR phosphorylation (Y1173) and gel mobility in PC9 (EGFR-mutant) and A549 (k-ras mutant) NSCLC cells after 10 μM NGI-1 treatment for 24 h. […] Actin expression was used as a control for protein loading. FIG. 4B illustrates MTT assays results of PC9 following treatment with 10 μM NGI-1 or 1 μM tunicamycin for a total of 5 d. Relative proliferation id reported in fold increase from day 0. FIG. 4C illustrates MTT assays results of A549 following treatment with 10 μM NGI-1 or 1 μM tunicamycin for a total of 5 d. Relative proliferation id reported in fold increase from day 0. FIG. 4D illustrates protein phosphorylation profiles of PC9 cells analyzed by phospho-protein array to assess the response of PC9 to 10 μM NGI-1 for 24 h. FIG. 4E illustrates protein phosphorylation profiles of A549 cells analyzed by phospho-protein array to assess the response of A549 to 10 μM NGI-1 for 24 h. […]
(§2) Growth rates were determined by CellTiter 96 NonRadioactive Cell Proliferation Assay (Promega; Madison, Wis. USA) according to the manufacturer's directions. […] Cell numbers were estimated after 0, 3, and 5 days by adding MTT [(3-(4,5-Dimethylthiazol-2-yl)-2,5-diphenyltetrazolium bromide] reagent to the wells 4 hours before taking the spectrophotometric reading (absorbance at 570 nm).

[3] = system: A549 cells; assay: MTT proliferation assay, A549; conditions: A549, 10 μM NGI-1 or 1 μM tunicamycin
Experimental: as §1, §2

[4] = system: PC9 cells; assay: Apoptosis by flow cytometry (Annexin-V, 7-AAD), PC9; conditions: PC9, NGI-1 10 μM for 2 or 5 days, or Tn 1 μM
Experimental: (§3) Analysis of apoptosis susceptibility in A549 and PC9 NSCLC cell lines followed treatment with NGI-1 10 μM or Tn 1 μM for 2 days was done by flow cytometry after staining the cells with Annexin-V (early apoptosis) and 7-AAD (viability dye). […] FIG. 9C: Western blot of BIP protein for A549 and PC9 cells after treatment with 10 μM NGI-1 for 6, 12 or 24 h. The expression of GAPDH was used as a loading control.

[5] = system: A549 cells; assay: Apoptosis by flow cytometry (Annexin-V, 7-AAD), A549; conditions: A549, NGI-1 10 μM for 2 or 5 days, or Tn 1 μM
Experimental: as §3

Substance: tunicamycin [reference compound]
- effect on LLO production [1]: blocked all LLO production
- effect on proliferation, MTT [2]: immediately blocks proliferation in both cell lines
- effect on proliferation, MTT [3]: immediately blocks proliferation in both cell lines
- induction of apoptosis [4]: apoptosis was activated
- induction of apoptosis [5]: apoptosis was activated
